The values below come from patent US4584305A, “Aiding the regression of neoplastic disease with 2,3,5,6-tetrahydro-6-phenylimidazo[2,1-b]thiazole” (Janssen Pharmaceutica N.V., priority 1981, dated 1986).

Structures are written as SMILES.

The data set is described as follows: Toxicity (mouse LD50). Type of data set: in vivo.

For the molecule `c1ccc(C2CN3CCSC3=N2)cc1` (stereo not shown) [levamisole, 2,3,5,6-tetrahydro-6-phenyl-imidazo[2,1-b]thiazole], the toxicity entry is “devoid of toxicity”.
